Structures can show the parent of a compound that is named as a salt.
Legend:
[1] = tested on: SST8-5; assay: Expression of SST8-5 mRNA in 3T3-L1 cell by an insulin sensitizer (TaqMan PCR); format: cell-based, mouse; conditions: 10 μM, 72 hours in differentiation medium in the presence of insulin; 36B4 mRNA internal standard
Method: Analysis of Expression of Novel Secretory or Membrane Protein Gene by an Insulin Sensitizer 3T3-L1 cell was inoculated into 6-well plate at 4×10^5 cells/well of cell number and incubated on DMEM (Invitrogen) medium containing 10% fetal bovine serum (Invitrogen) at 37° C. for 5 days. The medium was exchanged to a differentiation medium [DMEM medium containing 250 nM dexamethasone (Sigma), 0.5 mM 1-methyl-3-isobutyl xanthine (Wako Pure Chemical Industries, Ltd.), 10 μg/ml insulin (Sigma) and 10% fetal bovine serum]. In exchanging the medium to the differentiation medium, pioglitazone hydrochloride (10 μM, Takeda Pharmaceutical Company, Ltd.) which is an insulin sensitizer was added to the medium, and incubated for 72 hours in the presence of insulin. After completing incubation, the medium was washed with PBS (Invitrogen), and the cells were collected. Total RNA was gathered from the collected cells using RNAeasy kit (Qiagen) according to the instructions attached to the kit. Using the gathered total RNA, expression amounts of SST8-5 and mRNA of 36B4 which is used as internal standard were quantified by TaqMan PCR (Applied Biosystems). As a result, the expression amount of SST8-5 increased 2.4-fold by addition of pioglitazone hydrochloride as compared with control (pioglitazone hydrochloride free).

[2] = tested on: SST20-14; assay: Expression of SST20-14 mRNA in 3T3-L1 cell by insulin resistance inducing factor (TaqMan PCR); format: cell-based, mouse
Method: Analysis of Expression of Novel Secretory or Membrane Protein Gene by Insulin Resistance Inducing Factor
3T3-L1 cell was inoculated into 6-well plate at 4×10^5 cells/well of cell number and incubated on DMEM (Invitrogen) medium containing 10% fetal bovine serum (Invitrogen) at 37° C. for 5 days. The medium was exchanged to a differentiation medium [DMEM medium containing 250 nM dexamethasone (Sigma), 0.5 mM 1-methyl-3-isobutyl xanthine (Wako Pure Chemical Industries, Ltd.), 10 μg/ml insulin (Sigma) and 10% fetal bovine serum] and further incubated for 24 hours. In exchanging the medium to the differentiation medium, each of TNF-α (Genzyme Techne) at the concentration of 1 nM, 100 pM and 10 pM was added to the medium at the same time. After completing incubation, the medium was washed with PBS (Invitrogen), and the cells were collected. Total RNA was gathered from the collected cells using RNAeasy kit (Qiagen) according to the instructions attached to the kit. Using the gathered total RNA, expression amounts of SST20-14 and mRNA of 36B4 which is used as internal standard were quantified by TaqMan PCR (Applied Biosystems).

[3] = tested on: 3T3-L1 cell; assay: Differentiation of preadipocyte strain 3T3-L1 into mature adipocyte (oil red-O staining of lipid drop accumulation); format: cell-based; conditions: 3T3-L1 cell overexpressing SST20-14 (pCMV-SST20-14, Long form cDNA); differentiation medium 72 hours then 8 days; qualitative, microscopic observation
Method: Analysis of Action for Differentiation of Preadipocyte Strain 3T3-L1 into Mature Adipocyte
3T3-L1 cell was inoculated into 6-well plate at 2×10^5 cells/well of cell number, and incubated on DMEM (Invitrogen) medium containing 10% fetal bovine serum (Invitrogen) at 37° C. for 7 days, incubation solution was suctioned, and the well was washed twice with PBS (Invitrogen), and then 2 ml/well of OPTI-MEM (Invitrogen) was added thereto. OPTI-MEM (100 μl) and FuGENE™6 (10 μl, Roche) were mixed and stood still at room temperature for 5 minutes. Thereto was added […] of construct for expression pCMV-SST20-14 prepared by inserting SST20-14 (Long form) cDNA into EcoRI-HindIII cloning site of pCMV-Tag4A (Sigma) which is an expression plasmid, and the mixed solution was stood still at room temperature for 45 minutes. The solution containing the expression construct was added to the above-mentioned 3T3-L1 cell, and incubated at 37° C. for 6 hours, and then incubated on DMEM medium containing 10% fetal bovine serum at 37° C. for 40 hours. Then, the medium was exchanged to a differentiation medium [DMEM medium containing 250 nM dexamethasone (Sigma), 0.5 mM 1-methyl-3-isobutyl xanthine (Wako Pure Chemical Industries, Ltd.), 10 μg/ml insulin (Sigma) and 10% fetal bovine serum] and incubated for 72 hours. […]

CCc1ccc(CCOc2ccc(CC3SC(=O)NC3=O)cc2)nc1 (stereo not shown) [pioglitazone hydrochloride]
increase of expression amount of SST8-5 as compared with control (pioglitazone hydrochloride free) [1]: 2.4 fold

TNF-α
reduction of expression amount of SST20-14 as compared with control (TNF-α free) ([2]; 1 nM TNF-α for 24 hours in differentiation medium, 36B4 mRNA internal standard): about 70%
change of expression amount of SST20-14 with TNF-α concentration ([2]; TNF-α 1 nM, 100 pM and 10 pM, 24 hours in differentiation medium): changed depending on added TNF-α concentration

B1: SST20-14: mouse white adipose tissue-derived secretory or membrane protein, SEQ ID NO: 2; overexpressed from pCMV-SST20-14 construct (protein, listed as Mus musculus)
chain: MAGSRGLPLLLLVLQLFLGPVLPVRAPVFGRSDTPTLSPEENEFVEEENQPVLVLSSEEPEPGPATVDCPRDCACSQEGVVDCGGIDLREFPGDLPEHTNHLSLQNNQLEKIYPEELSRLQRLETLNLQNNRLTSRGLPEEAFEHLTSLNYLYLANNKLTLAPRFLPNALISVDFAANYLTKIYGLTFGQKPNLRSVYLHNNKLADAGLPDHMFNGSSNVEILILSSNFLRHVPKHLPPALYKLHLKNNKLEKIPPGAFSELSNLRELYLQNNYLTDEGLDNETFWKLSSLEYLDLSSTNLSRVPAGLPRSLVLLHLEKNAIQSVEADVLTPIRNLEYLLLHSNQLQAKGIHPLAFQGLKKLHTVHLYNNALERVPSGLPRRVRTLMILHNQITGIGREDFATTYFLEELNLSYNRITSPQMHRDAFRKLRLLRSLDLSGNRLQTLPPGLPKNVHVLKVKRNELAALARGALAGMAQLRELYLTGNRLRSRALGPRAWVDLAGLQLLDIAGNQLTEVPEGLPPSLEYLYLQNNKISAVPANAFDSTPNLKGIFLRFNKLAVGSVVESAFRRLKHLQVLDIEGNFEFGNGSKDKDEEEEEEEEEEDEEEETR
accumulation of lipid drop as compared with control 3T3-L1 cell [3]: reduced to a half or less
